From PMC4814829, “Design, synthesis, crystallization and biological evaluation of new symmetrical biscationic compounds as selective inhibitors of human Choline Kinase α1 (ChoKα1)” (Scientific Reports, 2016)

Experiments:
[1] = tested on: Human fibroblasts; test: Antiproliferative assay in non-tumoral cells; format: cell-based; conditions: Fibroblast, mean ± SEM
Description: Human fibroblasts from foreskin were isolated as previously described[58] and maintained in DMEM medium with 10% fetal bovine serum added.

[2] = molecular target: purified human ChoKα1 (Homo sapiens, UniProt P35790); test: Determination of human choline kinase α1 activity ([methyl-14C]choline incorporation into phosphocholine); format: biochemical; conditions: mean ± SEM, three independent experiments; read-out: IC50 ChoKα1 purified
Method: The effect of the different inhibitors on human choline kinase (ChoK) was assayed in ChoKα1 purified as previously described[32]. In each experiment DMSO-assays were always run in parallel as a control. DMSO in no case exceeded a concentration of 0.1% in order to avoid unspecific ChoK inhibition. ChoK activity was assayed by measuring the rate of incorporation of ^14C from [methyl-^14C]choline into phosphocholine both in the presence or absence of different inhibitor concentrations. Briefly, the final reaction mixture contained 100 mM Tris (pH 8.5), 10 mM MgCl2, and 10 mM ATP, and 20 ng of purified ChoKα1. […] The assay was stopped by immersing the reaction tubes in boiling water for 3 min. Aliquots of the reaction mixture were applied to the origin of Silica Gel plates in the presence of phosphocholine (0.1 mg) and choline (0.1 mg) as carriers. The chromatography was developed in methanol/0.6% NaCl/28% NH4OH in water (50:50:5, v/v/v) as solvent. Phosphocholine was visualized under exposure to iodine vapor and the corresponding spot was scraped and transferred to scintillation vials for measurement of radioactivity by a Beckman 6000-TA (Madrid, Spain) liquid-scintillation counter. At least three experiments were performed in all assays.

[3] = molecular target: T1, human ChoKα1 (Homo sapiens, UniProt P35790); test: Tryptophan fluorescence quenching; format: binding; conditions: mean ± S.D. of at least three independent experiments; 25 °C, enzyme 1 μM; read-out: HsChoKα1 Kd
T1 construct: made in house
Method: All compounds were prepared in 100% DMSO. Their Kds against human ChoKα1 were measured by monitoring the quenching of tryptophan fluorescence. All experiments were performed in a Cary Eclipse spectrofluorometer (Varian) at 25 °C with the enzymes at 1 μM, and concentrations of compounds varying from 0.1 to 5 μM for ChoKα1 in 25 mM Tris, 150 mM NaCl, pH 7.5. Fluorescence emission spectra were recorded in the 300–400 nm range with an excitation wavelength of 280 nm, with slit width of 5 nm. Controls were determined by incubating the enzymes with equivalent amounts of DMSO. As indicated previously, data analysis was performed in Prism (GraphPad software) considering a model with a single binding site (Eq. 1), where F0 is the intrinsic fluorescence of the enzyme in the absence of quencher (Q), F1 is the observed fluorescence at a given quencher concentration, fa is the fractional degree of fluorescence, and Kd is the dissociation constant.

[4] = tested on: HT-29 cells; test: Antiproliferative MTT assay; format: cell-based; conditions: Homo sapiens, 72 h, mean ± SEM
Method: (§1) Human T-cell leukemia (Jurkat), human B-cell leukemia (RS 4,11) and human promyelocytic leukemia (HL-60) cells were grown in RPMI-1640 medium (Gibco, Milan, Italy). Breast adenocarcinoma (MCF-7 and MDA-MB-231), human non-small cell lung carcinoma (A549), human cervix carcinoma (HeLa), human prostate adenocarcinoma (PC-3), and human colon adenocarcinoma (HT-29) cells were grown in DMEM medium (Gibco, Milan, Italy). Both media were supplemented with 115 units/mL of penicillin G (Gibco, Milan, Italy), 115 μg/mL of streptomycin (Invitrogen, Milan, Italy) and 10% fetal bovine serum (Invitrogen, Milan, Italy). Stock solutions (10 mM) of the different compounds were obtained by dissolving them in DMSO. Individual wells of 96-well tissue-culture microtiter plates were inoculated with 100 μL of complete medium containing 8 × 10^3 cells. The plates were incubated at 37 °C in a humidified 5% CO2 incubator for 18 h prior to the experiments. After medium removal, 100 μL of fresh medium containing the test compound at different concentrations was added to each well and incubated at 37 °C for 72 h. The percentage of DMSO in the medium in no case exceeded 0.25%.

[5] = tested on: PC-3 cells; test: Antiproliferative MTT assay; format: cell-based; conditions: Homo sapiens, 72 h, mean ± SEM
Method: as §1

[6] = tested on: HL-60 cells; test: Antiproliferative MTT assay; format: cell-based; conditions: Homo sapiens, 72 h, mean ± SEM
Method: as §1

[7] = tested on: Jurkat cells; test: Antiproliferative MTT assay; format: cell-based; conditions: Homo sapiens, 72 h, mean ± SEM
Method: as §1

[8] = tested on: A549 cells; test: Antiproliferative MTT assay; format: cell-based; conditions: Homo sapiens, 72 h, mean ± SEM
Method: as §1

[9] = tested on: MDA-MB-231 cells; test: Antiproliferative MTT assay; format: cell-based; conditions: Homo sapiens, 72 h, mean ± SEM
Method: as §1

[10] = tested on: MCF-7 cells; test: Antiproliferative MTT assay; format: cell-based; conditions: Homo sapiens, MCF7, 72 h, mean ± SEM
Method: as §1

[11] = tested on: HeLa cells; test: Antiproliferative MTT assay; format: cell-based; conditions: Homo sapiens, 72 h, mean ± SEM
Method: as §1

[12] = tested on: RS4,11 cells; test: Antiproliferative MTT assay; format: cell-based; conditions: Homo sapiens, 72 h, mean ± SEM
Method: as §1

[13] = tested on: HUVEC; test: Antiproliferative assay in non-tumoral cells; format: cell-based; conditions: Homo sapiens, mean ± SEM
Method: Human Umbilical Vein Endothelial cells (HUVEC), were prepared from human umbilical-cord veins, as previously described. The adherent cells were maintained in M200 medium added by LSGS (low serum growth supplement), containing FBS, hydrocortisone, hEGF, bFGF, heparin, gentamycin/amphotericin (Life Technologies, Monza, Italy). Once confluent, the cells were detached by trypsin–EDTA solution and used in experiments from the first to sixth passages.

[14] = tested on: PBL (+Pha); test: Antiproliferative assay in non-tumoral cells (MTT); format: cell-based; conditions: Homo sapiens, non-tumoral cells stimulated with phytohematoagglutinin, 72 h, mean ± SEM
Method: (§2) Peripheral mononuclear cells (PBMC) from healthy donors were obtained by separation on Lymphoprep (Fresenius KABI Norge AS) gradient. After extensive washing, cells were resuspended (1 × 10^6 cells/mL) in RPMI-1640 with 10% fetal bovine serum and incubated overnight. For cytotoxicity evaluations in proliferating PBL cultures, non-adherent cells were resuspended at 5 × 10^5 cells/mL in growth medium, containing 2.5 μg/mL PHA (Irvine Scientific). Different concentrations of the test compounds were added, and viability was determined 72 h later by the MTT test. For cytotoxicity evaluations in resting PBL cultures, non-adherent cells were resuspended (5 × 10^5 cells/mL) and treated for 72 h with the test compounds, as described above.

[15] = tested on: PBL (resting); test: Antiproliferative assay in non-tumoral cells (MTT); format: cell-based; conditions: Homo sapiens, 72 h, mean ± SEM
Method: as §2

[16] = tested on: Jurkat cells; test: Annexin-V/PI assay; format: cell-based, human; conditions: 72 h, positive controls Cis-Pt 50 μM, Etoposide 5 μM
Method: (§3) Surface exposure of PS on apoptotic cells was measured by flow cytometry with Cytomics FC500 (Beckman Coulter) by adding simultaneously annexin-V conjugated to fluorescein isothiocyanate (FITC) and PI to cells according to the manufacturer′s instructions (Annexin-V Fluos, Roche Diagnostic).

[17] = tested on: MDA-MB-231 cells; test: Annexin-V/PI assay; format: cell-based, human; conditions: MDA-MB-231, 72 h; positive controls Cis-Pt 50 μM, Etoposide 5 μM
Method: as §3

[18] = tested on: MCF-7 cells; test: Annexin-V/PI assay; format: cell-based, human; conditions: MCF-7, 72 h; positive controls Cis-Pt 50 μM, Etoposide 5 μM
Method: as §3

[19] = Solubility in crystallization mother liquor (crystal soaking); format: physicochemical; conditions: 20% PEG 3350, 0.25 M potassium isothiocyanate, 10% DMSO, compound 50 mM
Method: ChoKα1 at 20 mg/ml in buffer 25 mM Tris/HCl, 150 mM NaCl pH 7.5 was used as the protein solution. The sitting-drop vapor-diffusion method was used to produce apo-crystals by mixing 0.5 μl of the protein solution and an equal volume of mother liquor (crystals appeared in 20% polyethylene glycol [PEG] 3350 and 0.25 M potassium isothiocyanate). Tetragonal crystals (space group P43212) grew within in 3–4 days and were soaked in 2 μL of the mother liquor with 0.2 μL of a dilution 500 mM of compounds 10a, 10g, 10h, 10k, and 10l in DMSO (DMSO was at 10% final concentration in the mix whereas compounds were at 50 mM) for two days. Only crystals soaked with compound 10a contained the compound. The crystals used in this study were cryoprotected in mother-liquor solutions containing 20% ethylenglycol and frozen in a nitrogen gas stream cooled to 100 K.

[20] = tested on: MDA-MB-231 cells; test: Cell-cycle distribution analysis (PI, flow cytometry); format: cell-based, human; conditions: MDA-MB-231
Method: [The source words this procedure for another cell line and reports this cell line under the same test.] For flow-cytometric analysis of the DNA content, 5 × 10^5 HeLa or Jurkat cells in exponential growth were treated with different concentrations of the test compounds for 24 and 48 h. After the incubation period, the cells were collected, centrifuged, and fixed with ice-cold ethanol (70%). The cells were then treated with lysis buffer containing RNAse A and 0.1% Triton X-100, and then stained with propidium iodide (PI). Samples were analyzed in a Cytomics FC500 flow cytometer (Beckman Coulter). DNA histograms were analyzed using MultiCycle for Windows (Phoenix Flow Systems).

[21] = tested on: breast- and colon-cancer cells; set-up: method as in earlier work; conditions: 15 μM; ref 15 (Sanchez-Lopez et al.); cited from earlier work

Sequence of purified human ChoKα1 (P35790 whole entry): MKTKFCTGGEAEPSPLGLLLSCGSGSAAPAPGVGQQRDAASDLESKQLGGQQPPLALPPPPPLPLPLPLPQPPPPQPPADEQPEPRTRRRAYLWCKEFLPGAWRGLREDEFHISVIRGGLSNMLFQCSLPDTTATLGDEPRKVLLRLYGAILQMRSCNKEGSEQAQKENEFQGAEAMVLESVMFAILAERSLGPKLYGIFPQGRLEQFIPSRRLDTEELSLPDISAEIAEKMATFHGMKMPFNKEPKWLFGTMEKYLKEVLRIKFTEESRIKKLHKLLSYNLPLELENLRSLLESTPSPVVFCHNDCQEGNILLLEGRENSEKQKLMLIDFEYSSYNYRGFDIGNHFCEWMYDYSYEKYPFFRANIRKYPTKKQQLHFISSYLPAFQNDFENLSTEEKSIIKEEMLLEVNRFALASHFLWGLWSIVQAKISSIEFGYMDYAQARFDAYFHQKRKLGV
T1 sequence (P35790 whole entry): as above

SMILES | GI50 [1] [nM] | IC50 [2] [nM] | Kd [3] [nM] | GI50 [4] [nM] | GI50 [5] [nM] | GI50 [6] [nM] | GI50 [7] [nM] | GI50 [8] [nM] | GI50 [9] [nM] | GI50 [10] [nM] | GI50 [11] [nM] | GI50 [12] [nM] | GI50 [13] [nM] | GI50 [14] [nM] | GI50 [15] [nM] | Apoptotic cells (annexin-V/PI) [16] | Apoptotic cells (annexin-V/PI) [17] | Apoptotic cells (annexin-V/PI) [18] | also measured
CN(c1ccc(Cl)cc1)c1cc[n+](Cc2ccc(OCCOc3ccc(C[n+]4ccc(N(C)c5ccc(Cl)cc5)c5ccccc54)cc3)cc2)c2ccccc12.[Br-].[Br-] [Compound 10g, 1,1′-(((ethane-1,2-diylbis(oxy))bis(4,1-phenylene))bis(methylene))bis(4-((4-chlorophenyl)(methyl)amino)quinolinium) bromide] | 7400 ± 2400 | 3270 ± 660 | 517 ± 99 | 750 ± 120 | 260 ± 10 | 710 ± 240 | 98 ± 31 | 110 ± 18 | 190 ± 9 | 460 ± 63 | 250 ± 60 | 150 ± 40 | 10400 ± 3500 | 550 ± 110 | 980 ± 250 |  |  |  | melting point: 178 to 180 °C
COc1cc([C@@H]2c3cc4c(cc3[C@@H](O[C@@H]3O[C@@H]5CO[C@@H](C)O[C@H]5[C@H](O)[C@H]3O)[C@H]3COC(=O)[C@H]23)OCO4)cc(OC)c1O [Etoposide] |  |  |  |  |  |  |  |  |  |  |  |  |  |  |  | induce significant apoptosis | induce significant apoptosis | induce significant apoptosis | 
Clc1ccc2c(N3CCCC3)cc[n+](Cc3ccc(OCCOc4ccc(C[n+]5ccc(N6CCCC6)c6ccc(Cl)cc65)cc4)cc3)c2c1.[Br-].[Br-] [Compound 10l, 1,1′-(((ethane-1,2-diylbis(oxy))bis(4,1-phenylene))bis(methylene))bis(7-chloro-4-(pyrrolidin-1-yl)quinolinium) bromide] | 9600 ± 1300 | 920 ± 10 | 357 ± 39 | 560 ± 210 | 800 ± 200 | 160 ± 70 | 7 ± 3 | 140 ± 60 | 50 ± 20 | 22 ± 7 | 370 ± 180 | 420 ± 140 | 11400 ± 5900 | 490 ± 150 | 3800 ± 550 |  |  |  | Solubility in the mother liquor [19]: insoluble in the mother liquor
CN(C)c1cc[n+](Cc2ccc(CCCCc3ccc(C[n+]4ccc(N(C)C)cc4)cc3)cc2)cc1 [MN58b, reference compound] |  |  |  | 1900 ± 400 |  | 320 ± 30 | 350 ± 100 | 540 ± 200 | 310 ± 120 | 1800 ± 60 | 1900 ± 100 | 1000 ± 300 | 2100 ± 580 | 150 ± 50 | 2000 ± 400 |  |  |  | Cells with hypodiploid DNA content (apoptotic cells by cell-cycle analysis) [20]: negligible percentage of apoptotic cells; Cell-cycle effect (G1 phase) [21]: significant decrease of the G1 phase
N.N.[Cl][Pt][Cl] [Cis-Pt] |  |  |  |  |  |  |  |  |  |  |  |  |  |  |  | induce significant apoptosis | induce significant apoptosis | induce significant apoptosis | 
CN(c1ccccc1)c1cc[n+](Cc2ccc(OCCOc3ccc(C[n+]4ccc(N(C)c5ccccc5)c5ccc(Cl)cc54)cc3)cc2)c2cc(Cl)ccc12 [Compound 10h, 1,1′-(((ethane-1,2-diylbis(oxy))bis(4,1-phenylene))bis(methylene))bis(7-chloro-4-(methyl(phenyl)amino)quinolinium) bromide] | 3700 ± 430 | 2790 ± 170 |  | 350 ± 70 | 850 ± 320 | 920 ± 60 | 310 ± 70 | 180 ± 80 | 230 ± 40 | 320 ± 40 | 320 ± 62 | 26 ± 6 | 16000 ± 6600 | 320 ± 30 | 1000 ± 420 |  |  |  | 
